Data published in paper PMC10610038, “New Insights into the Enhancement of Adventitious Root Formation Using N,N′-Bis(2,3-methylenedioxyphenyl)urea” (Plants, 2023).
pKi: −log10 of the molar value.

Columns and labels:
[1] = target: T1, ZmCKX1 (cytokinin oxidase/dehydrogenase) (Zea mays, UniProt Q9T0N8); assay: DCPIP reduction assay with purified ZmCKX1, trans-zeatin substrate; Lineweaver-Burk; Ki from IC50 ([…]) by Cheng-Prusoff; assay type: biochemical
T1 construct: gene CKX1

[2] = target: T1, ZmCKX1 (cytokinin oxidase/dehydrogenase); assay: DCPIP reduction assay with purified ZmCKX1, trans-zeatin substrate; Ki from IC50 ([…]) by Cheng-Prusoff; assay type: biochemical

T1 sequence (Q9T0N8 19-534): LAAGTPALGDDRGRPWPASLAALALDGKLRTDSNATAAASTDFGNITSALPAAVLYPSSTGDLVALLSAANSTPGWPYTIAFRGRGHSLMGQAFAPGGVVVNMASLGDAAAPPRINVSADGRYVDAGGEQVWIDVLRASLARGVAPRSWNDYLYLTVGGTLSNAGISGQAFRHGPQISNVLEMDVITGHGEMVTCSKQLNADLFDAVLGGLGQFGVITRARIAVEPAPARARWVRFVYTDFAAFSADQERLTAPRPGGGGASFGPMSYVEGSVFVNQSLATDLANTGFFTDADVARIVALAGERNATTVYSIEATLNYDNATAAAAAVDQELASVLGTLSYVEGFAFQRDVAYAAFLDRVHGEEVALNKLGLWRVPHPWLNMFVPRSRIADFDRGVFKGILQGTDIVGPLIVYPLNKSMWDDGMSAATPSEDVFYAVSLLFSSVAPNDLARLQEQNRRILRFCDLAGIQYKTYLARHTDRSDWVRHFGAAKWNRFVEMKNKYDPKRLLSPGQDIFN

Row | pKi [1] | Structure (SMILES) | pKi [2]
1 | 5.80 | O=C(Nc1cccc2c1OCO2)Nc1cccc2c1OCO2 [2,3-MDPU, N,N′-bis-(2,3-methylenedioxyphenyl)urea] | 
2 |  | O=C(Nc1ccccc1)Nc1cnns1 [TDZ, N-phenyl-N′-(1,2,3-thiadiazol-5-yl)urea] | 5.85
